Results taken from US12410141B2, “Anti-cancer spirocyclic-guanidine compounds and uses thereof” (The Johns Hopkins University, priority 2020, dated 2025).
pIC50: −log10 of the molar value.

What was measured:
[1] = system: HCC1806 cells stably expressing 4UbFL; experiment: 4UbFL proteasome reporter, HCC1806 cells; format: cell-based; conditions: 4 hr treatment, IVIS imager
Description: Data are presented as IVIS image (FIG. 8A) and bioluminescence units (FIG. 8B).
4T1 and HCC1806 cells were transfected with 4UbFL plasmid using TransIT2020 transfection reagent for a period of 48 hrs and cells were selected using G418 antibiotic from single colonies. Selected cells were seeded in a 24-well plate (50,000/well) and incubated for 18 h at 37° C. in an incubator. Next, cells were treated with compounds for the period of 4 hr and Luciferin was added (50 uL each well, 7.8 mg/mL) and imaged through an IVIS200 instrument and plotted as a bioluminescent value or fold increase to DMSO control.

[2] = system: PEO23; experiment: MTT cytotoxicity assay, PEO23; format: cell-based; conditions: PEO23, ovarian, 72 hr, read-out: IC50, cell killing
Description: (§1) All cell lines were obtained from the American Type Culture Collection (ATCC) and cultured in the specified medium supplemented with 10% fetal bovine serum, 100 IU/mL penicillin, and 100 μg/mL streptomycin at 37° C. in a humidified 5% CO2/95% air incubator. To assess drug cytotoxicity cells were seeded at 2,500 cells/well (10,000 cells/well for MM lines and primary cells) in 100 μL medium in 96-well plate. […]
(§2) It was examined whether the RPN13 inhibitor, RA475, was cytotoxic for cancer cell lines using the MTT assay.

[3] = system: DLD-1; experiment: MTT cytotoxicity assay, DLD-1; format: cell-based; conditions: DLD-1, colon, 72 hr, read-out: IC50, cell killing
Description: as §1, §2

[4] = system: high molecular weight polyubiquitinated proteins in OVCAR3 cells; experiment: Western blot for polyubiquitinated proteins, OVCAR3 cells; format: cell-based; conditions: RA475 0.5 μM and 1 μM
Description: Cell lysate (10-20 μg total protein) prepared in MPER (Pierce) from each sample was subjected to SDS-PAGE, transferred to PVDF membranes and analyzed by Western blot using antibodies specific for ubiquitin (P4D1, sc-8017, Santa Cruz), or after stripping antibody for actin (#66009, Protein Tech Group), at the dilutions recommended by the manufacturers, and for secondary antibodies either peroxidase-linked anti-mouse IgG or anti-rabbit IgG (GE Healthcare UK Ltd) were utilized at the recommended dilution. The blots were developed using HyGLO chemiluminescent detection reagent (Denville).
Proteasome inhibitors cause a rapid accumulation of polyUb proteins that is associated with unresolved UPR stress and the induction of apoptosis. Since RA475 is cytotoxic to ovarian cancer cells (Table 1), and induces such a rapid accumulation of polyUb proteins (FIG. 5), it was examined whether RA475 also triggered apoptosis. SKOV3 cells (FIG. 5A) were treated with Up284 (0.5 μM and 1 μM), 1 μM RA190, RA475 (0.5 μM and 1 μM) or vehicle alone (DMSO) and then cultured for 12 hr. OVCAR3 cells (FIG. 5B) were treated with Up284 (0.5 μM), Bortezomib (Bz, 0.25 μM), Ixazomib (Iz, 0.25 μM), RA475 (0.5 μM and 1 μM) or vehicle alone (DMSO). The attached cells were harvested and their lysates were subjected to Western blot analysis, first probed with antibody to ubiquitin and then to actin.

[5] = system: U251MG; experiment: MTT cytotoxicity assay, U251MG; format: cell-based; conditions: glioblastoma multiforme, 72 hr, read-out: IC50, cell killing
Description: as §1, §2

[6] = Solubility compared with RA190; format: physicochemical; conditions: compared with prototypic RPN13 inhibitor RA190
[7] = system: TSH1; experiment: MTT cytotoxicity assay, TSH1; format: cell-based; conditions: TSH1, thyroid, 72 hr, read-out: IC50, cell killing
Description: as §1, §2

[8] = format: in vitro ADME, murine and human
Description: Human and mouse liver microsomes and NADPH regenerating system solutions were purchased from Corning Life Sciences (Tewsbury, MA). Human and mouse K2EDTA was purchased from BioIVT (Westbury, NY). Metabolic studies in liver microsomes (0.125 mg/mL) were conducted in 1× phosphate buffered saline (pH 7.4), NADPH-generating system, and 10 μM of RA475 in a final volume of 250 μl. An incubation mixture with and without NADPH-generating system as well as a neat solution without microsomes and NADPH-generating system were prepared. RA475 was added at the same concentration level into human and mouse EDTA plasma. All reactions were initiated with the addition of RA475. Incubations were performed in glass tubes maintained at 37° C. in a shaker bath. At 0, 30, and 60 minutes, 10 μL aliquots were sampled from the reaction mixture and 0.5 mL of acetonitrile containing internal standard (Up284) was added to each samples. Samples were vortex-mixed and underwent centrifugation for 5 min at 1430×g. […] The column effluent was monitored using an AB Sciex 5500 triple quadrupole mass spectrometer. […] Results were assessed qualitatively comparing the average area ratio of RA475 at 0 hr to area ratio at 30 and 60 minutes for both mouse and human liver microsomes. RA475 was not analyzed for metabolites due to the concentration of RA475 not decreasing. […]

Row | non-enzymatic degradation [8] [%] | additional degradation by CYP450 activity ([8]; microsomes) | Structure (SMILES) | bioluminescence of 4UbFL reporter [1] | pIC50 [2] | pIC50 [3] | accumulation of high molecular weight polyubiquitinated proteins [4] | pIC50 [5] | solubility relative to RA190 [6] | pIC50 [7]
1 |  |  | Cl.Cl.N#Cc1ccc(/C=C2/C(=O)/C(=C/c3ccc(C#N)cc3)C23CCN(C(=N)N)CC3)cc1 [RA475] | dose-dependent increase | 6.46 | 6.31 | triggers the accumulation | 6.22 | better solubility | 6.94
2 | ~50 | 9-13% | N#Cc1ccc(/C=C2/C(=O)/C(=C/c3ccc(C#N)cc3)C23CCNCC3)cc1 [Up284, reference compound] |  |  |  |  |  |  | 
